Measured values reported in US20120232070A1, “Use of Indole Derivatives as Nurr-1 Activators for the Application Thereof as a Medicament for the Treatment of Parkinson's Disease” (Laboratoires Fournier SA, priority 2009, published 2012).

Assays:
[1] = molecular target: hNurr1_RXRγFL (NURR1/RXRγ heterodimer) (Homo sapiens, UniProt P43354+P48443); assay: Transactivation assay in Cos-7 cells, NURR-1-Gal4 / RXRγ, luciferase reporter; assay type: cell-based; settings: for Emax: COS-7, read-out: hNurr1_RXRγFL Eff (%), efficacy in % relative to the reference XCT0135908 at 2·10^−5 M (=100%); for EC50: Cos-7 cells, overnight incubation
hNurr1_RXRγFL (NURR1/RXRγ heterodimer), sequence (P43354 328-598): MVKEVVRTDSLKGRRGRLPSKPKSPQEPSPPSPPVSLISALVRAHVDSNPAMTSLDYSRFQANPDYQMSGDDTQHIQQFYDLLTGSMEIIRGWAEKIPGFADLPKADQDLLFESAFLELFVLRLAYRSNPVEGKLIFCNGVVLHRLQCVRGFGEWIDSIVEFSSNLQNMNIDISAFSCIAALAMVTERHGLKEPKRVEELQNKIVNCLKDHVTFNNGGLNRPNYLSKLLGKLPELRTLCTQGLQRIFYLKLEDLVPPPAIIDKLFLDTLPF
hNurr1_RXRγFL (NURR1/RXRγ heterodimer), sequence (P48443 whole entry, the tested form may be a part): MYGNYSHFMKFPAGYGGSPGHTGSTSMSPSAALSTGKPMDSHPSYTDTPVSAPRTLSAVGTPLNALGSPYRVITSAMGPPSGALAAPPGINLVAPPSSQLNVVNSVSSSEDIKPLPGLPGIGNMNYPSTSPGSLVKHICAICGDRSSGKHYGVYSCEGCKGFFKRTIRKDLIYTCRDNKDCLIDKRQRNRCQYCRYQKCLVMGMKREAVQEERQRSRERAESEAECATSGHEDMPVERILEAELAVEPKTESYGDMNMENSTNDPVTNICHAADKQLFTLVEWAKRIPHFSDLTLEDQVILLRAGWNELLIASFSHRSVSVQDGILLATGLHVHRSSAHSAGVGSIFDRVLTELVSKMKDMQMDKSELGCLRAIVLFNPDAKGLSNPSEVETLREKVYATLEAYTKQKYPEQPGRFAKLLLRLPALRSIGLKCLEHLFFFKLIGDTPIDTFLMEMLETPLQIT
Description: (§1) First, the capacity of the compounds according to the invention for acting as an activator of the heterodimers formed by the NURR-1 nuclear receptor and the RXR nuclear receptors was measured by an in vitro assay.
(§2) A transactivation assay was used as a primary screening assay. Cos-7 cells were co-transfected with a plasmid expressing a chimera of the human receptor NURR-1-Gal4, a plasmid expressing the human receptor RXR (RXRα or RXRγ receptor) and a reporter plasmid 5Gal4pGL3-TK-Luc. The transfections were performed by means of a chemical agent (Jet PEI).
(§3) The transfected cells were distributed in 384-well plates and left resting for 24 hours.
(§4) After 24 hours, the culture medium was changed. The products according to the invention were added (final concentration between 10^−4 and 3·10^−10 M) to the culture medium. After overnight incubation, luciferase expression was measured after addition of “SteadyGlo” according to the manufacturer's instructions (Promega).
(§5) 4-[[6-Methyl-2-phenyl-5-(2-prop enyl)-4-pyrimidinyl]amino]-benzoic acid (called XCT0135908, which was described in the article by Wallen-Mackenzie et al. published in Genes & Development 17, pages 3036-3047) at 2·10^−5 M (RXR agonist) was used as reference.
(§6) The levels of induction (designated by “efficiency”) were calculated relative to the baseline activity of each heterodimer. The results were expressed as a percentage of the level of induction relative to the level of induction obtained with the reference (the level of induction of the reference is arbitrarily taken to be 100%).

[2] = molecular target: hNurr1_RXRαFL (NURR1/RXRα heterodimer) (Homo sapiens, UniProt P19793+P43354); assay: Transactivation assay in Cos-7 cells, NURR-1-Gal4 / RXRα, luciferase reporter; assay type: cell-based; settings: for Emax: COS-7, read-out: hNurr1_RXRαFL Eff (%), efficacy in % relative to the reference XCT0135908 at 2·10^−5 M (=100%); for EC50: Cos-7 cells, overnight incubation; for hNurr1_RXRαFL Eff (%): efficacy in % relative to the reference XCT0135908 at 2·10^−5 M (=100%)
hNurr1_RXRαFL (NURR1/RXRα heterodimer), sequence (P19793 whole entry, the tested form may be a part): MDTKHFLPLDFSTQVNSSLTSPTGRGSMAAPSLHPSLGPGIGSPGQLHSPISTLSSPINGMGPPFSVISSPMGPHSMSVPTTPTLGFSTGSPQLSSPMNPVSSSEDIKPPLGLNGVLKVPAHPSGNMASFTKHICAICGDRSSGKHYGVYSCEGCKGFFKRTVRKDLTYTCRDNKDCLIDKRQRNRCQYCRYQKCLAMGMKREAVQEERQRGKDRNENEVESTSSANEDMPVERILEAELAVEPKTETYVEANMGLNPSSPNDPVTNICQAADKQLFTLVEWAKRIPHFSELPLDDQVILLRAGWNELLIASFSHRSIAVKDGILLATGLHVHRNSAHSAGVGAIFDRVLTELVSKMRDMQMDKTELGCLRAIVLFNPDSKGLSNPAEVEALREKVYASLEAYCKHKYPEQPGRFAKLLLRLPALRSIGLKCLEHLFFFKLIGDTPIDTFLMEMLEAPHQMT
hNurr1_RXRαFL (NURR1/RXRα heterodimer), sequence (P43354 328-598): as the sequence (P43354 328-598) above
Description: as §1, §2, §3, §4, §5, §6

SMILES	Emax [1] [%]	EC50 [1] [nM]	Emax [2] [%]	EC50 [2] [nM]	hNurr1_RXRαFL Eff (%) [2] [%]
O=C(O)c1ccc(Cc2cc3cc(Cl)ccc3n2S(=O)(=O)c2ccc(F)c(F)c2)cc1 [Example 153, 4-[[1-[3-fluoro-4-fluoro-phenylsulfonyl]-5-(chloro)-1H-indol-2-yl]methyl]benzoic acid]	63	1390	85	851	–
CC(C)(C)c1cccc(S(=O)(=O)n2c(Cc3ccc(-c4noc(=O)[nH]4)cc3)cc3cc(C(F)(F)F)ccc32)c1 [Example 222, 3-[[4-[1-[[3-(1,1-dimethylethyl)phenyl]sulfonyl]-5-(trifluoromethyl)-1H-indol-2-yl]methyl]-phenyl]-4H-[1,2,4]oxadiazol-5-one]	55	676	62	367	–
CC(C)c1ccc(S(=O)(=O)n2c(Cc3ccc(C(=O)O)s3)cc3cc(C(F)(F)F)ccc32)cc1 [Example 71, 5-[[1-[[4-(1-methylethyl)-phenyl]sulfonyl]-5-trifluoromethyl-1H-indol-2-yl]methyl]-thiophene-2-carboxylic acid]	82	95	61	47	–
O=C(O)c1ccc(Cc2cc3cc(Cl)ccc3n2S(=O)(=O)c2ccc3ccccc3c2)cc1 [Example 163, 4-[[5-chloro-1-(2-naphthalenylsulfonyl)-1H-indol-2-yl]methyl]benzoic acid]	34	933	53	427	–
CN1CCOc2ccc(S(=O)(=O)n3c(Cc4ccc(F)c(C(=O)O)c4)cc4cc(C(F)(F)F)ccc43)cc21 [Example 212, 3-[[1-[[4-methyl-3,4-dihydro-2H-benzo[1,4]oxazin-6-yl]-sulfonyl]-5-trifluoromethyl-1H-indol-2-yl]methyl]-6-fluorobenzoic acid]	81	40	80	19	–
CC(C)(C)c1cccc(S(=O)(=O)n2c(Cc3ccc(C(=O)O)cc3Cl)cc3cc(C(F)(F)F)ccc32)c1 [Example 205, 4-[[1-[[3-(1,1-dimethylethyl)-phenyl]sulfonyl]-5-trifluoromethyl-1H-indol-2-yl]methyl]-3-chlorobenzoic acid]	–	–	75	98	–
CC(C)(C)c1cccc(S(=O)(=O)n2c(Cc3cc(F)cc(C(=O)O)c3)cc3cc(C(F)(F)F)ccc32)c1 [Example 201, 3-[[1-[[3-(1,1-dimethylethyl)-phenyl]sulfonyl]-5-trifluoromethyl-1H-indol-2-yl]methyl]-5-fluorobenzoic acid]	–	–	–	–	96
CC(C)c1ccc(S(=O)(=O)n2c(Cc3csc(C(=O)O)c3)cc3cc(C(F)(F)F)ccc32)cc1 [Example 72, 4-[[1-[[4-(1-methylethyl)-phenyl]sulfonyl]-5-trifluoromethyl-1H-indol-2-yl]methyl]-thiophene-2-carboxylic acid]	–	–	131	72	–
COc1ccc(Cc2cc3cc(C(F)(F)F)ccc3n2S(=O)(=O)c2cccc(C(C)(C)C)c2)cc1C(=O)O [Example 202, 3-[[1-[[3-(1,1-dimethylethyl)-phenyl]sulfonyl]-5-trifluoromethyl-1H-indol-2-yl]methyl]-6-methoxybenzoic acid]	–	–	104	19	–
CC(C)(C)c1cccc(S(=O)(=O)n2c(Cc3cc(C(=O)O)c(F)cc3Cl)cc3cc(C(F)(F)F)ccc32)c1 [Example 203, 3-[[1-[[3-(1,1-dimethylethyl)-phenyl]sulfonyl]-5-trifluoromethyl-M-indol-2-yl]methyl]-4-chloro-6-fluorobenzoic acid]	–	–	–	85	83
CN1CCOc2ccc(S(=O)(=O)n3c(Cc4csc(C(=O)O)c4)cc4cc(C(F)(F)F)ccc43)cc21 [Example 74, 4-[[1-[(4-methyl-3,4-dihydro-2H-benzo[1,4]oxazin-6-yl)-sulfonyl]-5-trifluoromethyl-1H-indol-2-yl]methyl]-thiophene-2-carboxylic acid]	–	–	150	40	–
CC(C)(C)c1cccc(S(=O)(=O)n2c(C(C)(O)c3ccc(C(=O)O)s3)cc3cc(C(F)(F)F)ccc32)c1 (stereo not shown) [Example 95, 5-[1-[1-[[3-(1,1-dimethylethyl)-phenyl]sulfonyl]-5-(trifluoromethyl)-1H-indol-2-yl]-1-hydroxyethyl]-thiophene-2-carboxylic acid]	–	–	99	209	–
O=C(O)c1cc(Cc2cc3cc(Cl)ccc3n2S(=O)(=O)c2ccc3c(c2)OCCO3)cs1 [Example 78]	–	–	116	331	–
CN1CCOc2ccc(S(=O)(=O)n3c(Cc4ccc(C(=O)O)o4)cc4cc(C(F)(F)F)ccc43)cc21 [Example 75, 5-[[1-[(4-methyl-3,4-dihydro-2H-benzo[1,4]oxazin-6-yl)-sulfonyl]-5-trifluoromethyl-1H-indol-2-yl]methyl]-furan-2-carboxylic acid]	–	–	114	66	–
COc1ccc(C(=O)O)cc1Cc1cc2cc(C(F)(F)F)ccc2n1S(=O)(=O)c1cccc(C(C)(C)C)c1 [Example 208, 3-[[1-[[3-(1,1-dimethylethyl)-phenyl]sulfonyl]-5-trifluoromethyl-1H-indol-2-yl]methyl]-4-methoxybenzoic acid]	–	–	31	240	–
CC(C)(C)c1cccc(S(=O)(=O)n2c(Cc3cc(C(=O)O)ccc3F)cc3cc(C(F)(F)F)ccc32)c1 [Example 199, 3-[[1-[[3-(1,1-dimethylethyl)-phenyl]sulfonyl]-5-trifluoromethyl-1H-indol-2-yl]methyl]-4-fluorobenzoic acid]	–	–	118	22	–
CC(C)(C)c1cccc(S(=O)(=O)n2c(C(O)c3ccc(C(=O)O)s3)cc3cc(C(F)(F)F)ccc32)c1 (stereo not shown) [Example 91, 5-[[1-[[3-(1,1-dimethylethyl)-phenyl]sulfonyl]-5-trifluoromethyl-1H-indol-2-yl]hydroxymethyl]-thiophene-2-carboxylic acid]	–	–	100	72	–
C=C(c1ccc(C(=O)O)s1)c1cc2cc(C(F)(F)F)ccc2n1S(=O)(=O)c1cccc(C(C)(C)C)c1 [Example 96, 5-[1-[1-[[3-(1,1-dimethylethyl)-phenyl]sulfonyl]-5-(trifluoromethyl)-1H-indol-2-yl]-1-ethenyl]-thiophene-2-carboxylic acid]	–	–	54	339	–
O=C(O)c1ccc(Cc2cc3cc(Cl)ccc3n2S(=O)(=O)c2ccc3c(c2)OCCO3)o1 [Example 79, 5-[[5-chloro-1-[(2,3-dihydro-benzo[1,4]dioxin-6-yl)sulfonyl]-1H-indol-2-yl]methyl]-furan-2-carboxylic acid]	–	–	147	724	–
O=C(O)c1ccc(Cc2cc3cc(C(F)(F)F)ccc3n2S(=O)(=O)c2ccc(C(=O)N3CCOCC3)cc2)cc1 [Example 129, 4-[[1-[4-(morpholine-4-carbonyl)benzenesulfonyl]-5-(trifluoromethyl)-1H-indol-2-yl]methyl]benzoic acid]	–	–	41	804	–
CC(C)(C)c1cccc(S(=O)(=O)n2c(Cc3cc(F)cc(C(=O)O)c3)cc3cc(C(F)(F)F)ccc32)c1 [Example 200, 3-[[1-[[3-(1,1-dimethylethyl)-phenyl]sulfonyl]-5-trifluoromethyl-1H-indol-2-yl]methyl]-5-fluorobenzoic acid]	–	–	93	–	–
Cn1cc(Cc2cc3cc(C(F)(F)F)ccc3n2S(=O)(=O)c2cccc(C(C)(C)C)c2)cc1C(=O)O [Example 87, 4-[[1-[[3-(1,1-dimethylethyl)-phenyl]sulfonyl]-5-trifluoromethyl-1H-indol-2-yl]methyl]-1-methyl-pyrrol-2-yl-carboxylic acid]	–	–	123	30	–
CC(C)(C)c1cccc(S(=O)(=O)n2c(C(=O)c3ccc(C(=O)O)s3)cc3cc(C(F)(F)F)ccc32)c1 [Example 94, 5-[[1-[[3-(1,1-dimethylethyl)-phenyl]sulfonyl]-5-trifluoromethyl-1H-indol-2-yl]-carbonyl]-thiophene-2-carboxylic acid]	–	–	106	1240	–
COc1c(Cc2cc3cc(C(F)(F)F)ccc3n2S(=O)(=O)c2cccc(C(C)(C)C)c2)cccc1C(=O)O [Example 207, 3-[[1-[[3-(1,1-dimethylethyl)-phenyl]sulfonyl]-5-trifluoromethyl-1H-indol-2-yl]methyl]-2-methoxybenzoic acid]	–	–	48	513	–
CN1CCOc2ccc(S(=O)(=O)n3c(Cc4cc(C(=O)O)co4)cc4cc(C(F)(F)F)ccc43)cc21 [Example 76, 5-[[1-[[4-methyl-3,4-dihydro-2H-benzo[1,4]oxazin-6-yl)-sulfonyl]-5-trifluoromethyl-1H-indol-2-yl]methyl]-furan-3-carboxylic acid]	–	–	138	63	–
